Where two headings read alike, the source gives them in different places. Numbered stars: 1 amine (or outer) side, 2 acyl side, 3 side chain; on linkers, the order of the positions; unused ones are H or OH. Square brackets hold non-standard residues; d marks the D form. Peptide text beside a SMILES is read from it. * marks the point of attachment. Phe(3-CONH2) = NC(=O)c1cccc(C[C@H](N)C(=O)O)c1; X1 = O=C([C@H](Cc1cc(F)c(F)cc1F)N[*:1])[*:2]; Phe(4-CN) = N#Cc1ccc(C[C@H](N)C(=O)O)cc1; Phe(4-Cl) = N[C@@H](Cc1ccc(Cl)cc1)C(=O)O; Dab(3S-OH) = NC[C@H](O)[C@H](N)C(=O)O; His(τ-Me) = Cn1cnc(C[C@H](N)C(=O)O)c1; ΔZArg = N=C(N)NCC/C=C(\N)C(=O)O; aThr = C[C@H](O)[C@H](N)C(=O)O; X2 = CC=C(N[*:1])C(=O)[*:2]; dOrn = NCCC[C@@H](N)C(=O)O; Pra = C#CC[C@H](N)C(=O)O; Dab = NCC[C@H](N)C(=O)O; NH(CH2)4NH2 = NCCCCN*
Legend:
[1] = tested on: Escherichia coli ATCC 25922; assay: MIC, broth microdilution (CLSI), reference strain; settings: CAMHB
Ec #5 (DSM22315) = assay: MIC / resistance profile, multidrug-resistant strain; settings: multidrug-resistant E. coli DSM22315
[2] = tested on: Pseudomonas aeruginosa ATCC 27853; assay: MIC, broth microdilution (CLSI), reference strain; settings: CAMHB
[3] = tested on: Staphylococcus aureus ATCC 13709; assay: MIC, broth microdilution (CLSI), reference strain; settings: CAMHB
[4] = tested on: Acinetobacter baumannii ATCC 19606; assay: MIC, broth microdilution (CLSI), reference strain; settings: CAMHB
Ec #3 (EGB957) = assay: MIC / resistance profile, multidrug-resistant strain; settings: multidrug-resistant E. coli EGB957
Ec #4 (GUE) = assay: as above; settings: multidrug-resistant E. coli GUE
Ec #1 (NCTC13476) = assay: as above; settings: multidrug-resistant E. coli NCTC13476
Ec #2 (MIN) = assay: as above; settings: multidrug-resistant E. coli MIN
[5] = biological target: N-type calcium channels (Cav2.2) (Rattus norvegicus (Rat), UniProt Q02294); assay: biochemical; format: binding
[6] = value in brackets, rat cerebral cortex, [125I]ω-conotoxin GVIA 0.001 nM, read-out: IC50 Cav2.2
[7] = class symbol, rat cerebral cortex, [125I]ω-conotoxin GVIA 0.001 nM, 30 minutes at room temperature, read-out: IC50 Cav2.2

SMILES | Ec: MIC Escherichia coli ATCC 25922 [1] | MIC Ec#5 (Ec #5 (DSM22315)) | Pa: MIC Pseudomonas aeruginosa ATCC 27853 [2] | Sa: MIC Staphylococcus aureus ATCC 13709 [3] | Ab: MIC Acinetobacter baumannii ATCC 19606 [4] | MIC Ec#3 (Ec #3 (EGB957)) | MIC Ec#4 (Ec #4 (GUE)) | MIC Ec#1 (Ec #1 (NCTC13476)) | MIC Ec#2 (Ec #2 (MIN)) | IC50 [5] [nM] | IC50 [5, 6] [nM] | IC50 [5, 7] [nM]
C[C@H](NC(=O)[C@@H](NC(=O)[C@@H](N)CCCCN)[C@@H](O)CN)C(=O)NCC(=O)N[C@H](CCCN)C(=O)N1CCC[C@H]1C(=O)N[C@@H](Cc1cccc(C(N)=O)c1)C(=O)N[C@@H](CCCCN)C(=O)N/C(=C\CCNC(=N)N)C(=O)O [24.90] (H-K[Dab(3S-OH)]AG[dOrn]P[Phe(3-CONH2)]K[ΔZArg]-OH) | ++ (≤8 μg/mL) | ++ (≤8 μg/mL) | − (>32 μg/mL) | ++ (≤8 μg/mL) | − (>32 μg/mL) | ++ (≤8 μg/mL) | ++ (≤8 μg/mL) | ++ (≤8 μg/mL) | ++ (≤8 μg/mL) |  |  | 
C[C@H](O)[C@H](NC(=O)[C@@H](NC(=O)[C@@H](N)CCCCN)[C@@H](O)CN)C(=O)NCC(=O)N[C@H](CCCN)C(=O)N1CCC[C@H]1C(=O)N[C@@H](Cc1cnc[nH]1)C(=O)N[C@@H](CCCCN)C(=O)N/C(=C\CCNC(=N)N)C(=O)N[C@@H](CCCCN)C(=O)NCCCCN [25.1] (H-K[Dab(3S-OH)][aThr]G[dOrn]PHK[ΔZArg]K-{NH(CH2)4NH2}) | ++ (≤8 μg/mL) |  | + (≤32 μg/mL) | ++ (≤8 μg/mL) | − (>32 μg/mL) |  |  |  |  | < 30 | 3 | 
C[C@H](NC(=O)[C@@H](NC(=O)[C@@H](N)CCCCN)[C@@H](O)CN)C(=O)NCC(=O)N[C@H](CCCN)C(=O)N1CCC[C@H]1C(=O)N[C@@H](Cc1ccc(Cl)cc1)C(=O)N[C@@H](CCCCN)C(=O)N/C(=C\CCNC(=N)N)C(=O)O [24.97] (H-K[Dab(3S-OH)]AG[dOrn]P[Phe(4-Cl)]K[ΔZArg]-OH) | ++ (≤8 μg/mL) |  | − (>32 μg/mL) | ++ (≤8 μg/mL) | − (>32 μg/mL) |  |  |  |  |  |  | > 300
C[C@H](NC(=O)[C@@H](NC(=O)[C@@H](N)CCCCN)[C@@H](O)CN)C(=O)NCC(=O)N[C@H](CCCN)C(=O)N1CCC[C@H]1C(=O)N[C@@H](Cc1ccc(C#N)cc1)C(=O)N[C@@H](CCCCN)C(=O)N/C(=C\CCNC(=N)N)C(=O)O [24.100] (H-K[Dab(3S-OH)]AG[dOrn]P[Phe(4-CN)]K[ΔZArg]-OH) | ++ (≤8 μg/mL) | + (≤32 μg/mL) | − (>32 μg/mL) | ++ (≤8 μg/mL) | − (>32 μg/mL) | ++ (≤8 μg/mL) | ++ (≤8 μg/mL) | ++ (≤8 μg/mL) | ++ (≤8 μg/mL) |  |  | 
N=C(N)NCC/C=C(\NC(=O)[C@H](CCCCN)NC(=O)[C@H](Cc1cnc[nH]1)NC(=O)[C@@H]1CCCN1C(=O)[C@@H](CCCN)NC(=O)CNC(=O)[C@H](CCN)NC(=O)[C@@H](NC(=O)[C@@H](N)CCCCN)[C@@H](O)CN)C(=O)N[C@@H](CCCCN)C(=O)NCCCCN [21.1] (H-K[Dab(3S-OH)][Dab]G[dOrn]PHK[ΔZArg]K-{NH(CH2)4NH2}) | ++ (≤8 μg/mL) |  | ++ (≤8 μg/mL) | ++ (≤8 μg/mL) | ++ (≤8 μg/mL) |  |  |  |  |  |  | < 30
CC=C(NC(=O)[C@H](CCCCN)NC(=O)[C@H](Cc1cnc[nH]1)NC(=O)[C@@H]1CCCN1C(=O)[C@@H](CCCN)NC(=O)CNC(=O)[C@@H](NC(=O)[C@@H](NC(=O)[C@@H](N)CCCCN)[C@@H](O)CN)[C@@H](O)CN)C(=O)N[C@@H](CCCCN)C(=O)NCCCCN [22.15] (H-K[Dab(3S-OH)][Dab(3S-OH)]G[dOrn]PHK[X2]K-{NH(CH2)4NH2}) | + (≤32 μg/mL) |  | − (>32 μg/mL) | ++ (≤8 μg/mL) | − (>32 μg/mL) |  |  |  |  | < 30 | 4 | 
C[C@H](NC(=O)[C@@H](NC(=O)[C@@H](N)CCCCN)[C@@H](O)CN)C(=O)NCC(=O)N[C@H](CCCN)C(=O)N1CCC[C@H]1C(=O)N[C@@H](CC(N)=O)C(=O)N[C@@H](CCCCN)C(=O)N/C(=C\CCNC(=N)N)C(=O)O [24.112] (H-K[Dab(3S-OH)]AG[dOrn]PNK[ΔZArg]-OH) | − (>32 μg/mL) |  | − (>32 μg/mL) | + (≤32 μg/mL) | − (>32 μg/mL) |  |  |  |  | > 300 | 790 | 
C[C@H](NC(=O)[C@@H](NC(=O)[C@@H](N)CCCCN)[C@@H](O)CN)C(=O)NCC(=O)N[C@H](CCCN)C(=O)N1CCC[C@H]1C(=O)N[C@@H](Cc1cn(C)cn1)C(=O)N[C@@H](CCCCN)C(=O)N/C(=C\CCNC(=N)N)C(=O)O [24.76] (H-K[Dab(3S-OH)]AG[dOrn]P[His(τ-Me)]K[ΔZArg]-OH) | − (>32 μg/mL) |  | − (>32 μg/mL) | + (≤32 μg/mL) | − (>32 μg/mL) |  |  |  |  |  |  | > 300
C[C@H](NC(=O)[C@@H](NC(=O)[C@@H](N)CCCCN)[C@@H](O)CN)C(=O)NCC(=O)N[C@H](CCCN)C(=O)N1CCC[C@H]1C(=O)N[C@@H](Cc1c[nH]c2ccccc12)C(=O)N[C@@H](CCCCN)C(=O)N/C(=C\CCNC(=N)N)C(=O)O [24.156] (H-K[Dab(3S-OH)]AG[dOrn]PWK[ΔZArg]-OH) | ++ (≤8 μg/mL) | ++ (≤8 μg/mL) | − (>32 μg/mL) | ++ (≤8 μg/mL) | − (>32 μg/mL) | ++ (≤8 μg/mL) | ++ (≤8 μg/mL) | + (≤32 μg/mL) | ++ (≤8 μg/mL) |  |  | 
C[C@H](NC(=O)[C@@H](NC(=O)[C@@H](N)CCCCN)[C@@H](O)CN)C(=O)NCC(=O)N[C@H](CCCN)C(=O)N1CCC[C@H]1C(=O)N[C@@H](Cc1cc(F)c(F)cc1F)C(=O)N[C@@H](CCCCN)C(=O)N/C(=C\CCNC(=N)N)C(=O)O [24.77] (H-K[Dab(3S-OH)]AG[dOrn]P[X1]K[ΔZArg]-OH) | ++ (≤8 μg/mL) | + (≤32 μg/mL) | − (>32 μg/mL) | ++ (≤8 μg/mL) | − (>32 μg/mL) | ++ (≤8 μg/mL) | + (≤32 μg/mL) | + (≤32 μg/mL) | + (≤32 μg/mL) |  |  | 
C[C@H](NC(=O)[C@@H]1CCCN1C(=O)[C@@H](CCCN)NC(=O)CNC(=O)[C@@H](NC(=O)[C@@H](NC(=O)[C@@H](N)CCCCN)[C@@H](O)CN)[C@@H](O)CN)C(=O)N[C@@H](CCCCN)C(=O)N/C(=C\CCNC(=N)N)C(=O)N[C@@H](CCCCN)C(=O)NCCCCN [22.4] (H-K[Dab(3S-OH)][Dab(3S-OH)]G[dOrn]PAK[ΔZArg]K-{NH(CH2)4NH2}) | ++ (≤8 μg/mL) |  | + (≤32 μg/mL) | ++ (≤8 μg/mL) | − (>32 μg/mL) |  |  |  |  |  |  | < 30
C#CC[C@H](NC(=O)[C@@H]1CCCN1C(=O)[C@@H](CCCN)NC(=O)CNC(=O)[C@H](C)NC(=O)[C@@H](NC(=O)[C@@H](N)CCCCN)[C@@H](O)CN)C(=O)N[C@@H](CCCCN)C(=O)N/C(=C\CCNC(=N)N)C(=O)N[C@@H](CCCCN)C(=O)NCCCCN [24.67] (H-K[Dab(3S-OH)]AG[dOrn]P[Pra]K[ΔZArg]K-{NH(CH2)4NH2}) | ++ (≤8 μg/mL) |  | + (≤32 μg/mL) | − (>32 μg/mL) | − (>32 μg/mL) |  |  |  |  |  |  | < 30

Reference: US10626144B2, “Peptide derivatives and uses thereof” (Nosopharm, priority 2014, dated 2020)
